According to ChEMBL document CHEMBL1201862, “PubChem BioAssay data set” (2004):
Blank lines part the entries; values can stand above or below the compound they belong to. Activity calls are given as the source filed them.

What was measured:
[1] = target: Intestinal-type alkaline phosphatase (Homo sapiens, UniProt P09923); assay: Dose Response confirmation of uHTS hits from a small molecule inhibitors of human intestinal alkaline phosphatase via a luminescent assay. [Related pubchem assays (depositor defined):AID2544, AID2574]; format: functional
Intestinal-type alkaline phosphatase, sequence (P09923 whole entry): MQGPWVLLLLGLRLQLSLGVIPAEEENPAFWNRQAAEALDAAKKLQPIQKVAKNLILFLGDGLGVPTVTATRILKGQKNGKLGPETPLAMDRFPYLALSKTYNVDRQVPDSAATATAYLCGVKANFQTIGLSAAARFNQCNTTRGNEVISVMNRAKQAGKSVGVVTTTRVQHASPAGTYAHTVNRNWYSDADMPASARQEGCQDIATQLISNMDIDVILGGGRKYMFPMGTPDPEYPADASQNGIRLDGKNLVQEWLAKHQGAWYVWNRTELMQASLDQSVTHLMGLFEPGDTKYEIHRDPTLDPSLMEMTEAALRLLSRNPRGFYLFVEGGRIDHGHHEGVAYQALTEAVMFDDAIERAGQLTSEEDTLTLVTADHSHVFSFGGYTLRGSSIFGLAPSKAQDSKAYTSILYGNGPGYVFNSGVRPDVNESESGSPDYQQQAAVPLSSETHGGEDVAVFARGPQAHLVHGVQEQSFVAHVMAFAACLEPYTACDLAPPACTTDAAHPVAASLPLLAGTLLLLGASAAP

[2] = target: T1, Runt-related transcription factor 1/Core-binding factor subunit beta (Homo sapiens, UniProt Q01196+Q13951); assay: inhibitors of RUNX1 Runt–CBFb-SMMHC binding, biochemical, TR-FRET (AID 1438); format: protein assay
T1 sequence (Q01196 whole entry): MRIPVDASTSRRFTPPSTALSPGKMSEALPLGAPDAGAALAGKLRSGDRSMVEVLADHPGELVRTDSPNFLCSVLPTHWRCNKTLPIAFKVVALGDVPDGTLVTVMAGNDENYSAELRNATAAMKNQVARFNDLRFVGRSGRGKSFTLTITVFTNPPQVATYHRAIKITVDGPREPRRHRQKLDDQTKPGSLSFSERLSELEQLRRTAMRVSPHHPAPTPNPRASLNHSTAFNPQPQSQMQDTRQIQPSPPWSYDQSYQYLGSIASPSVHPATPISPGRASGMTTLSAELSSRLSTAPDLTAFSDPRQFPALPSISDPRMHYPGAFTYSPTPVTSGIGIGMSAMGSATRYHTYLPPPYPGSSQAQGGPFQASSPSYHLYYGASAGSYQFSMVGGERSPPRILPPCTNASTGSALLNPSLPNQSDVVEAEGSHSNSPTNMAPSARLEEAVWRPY
T1 sequence (Q13951 whole entry): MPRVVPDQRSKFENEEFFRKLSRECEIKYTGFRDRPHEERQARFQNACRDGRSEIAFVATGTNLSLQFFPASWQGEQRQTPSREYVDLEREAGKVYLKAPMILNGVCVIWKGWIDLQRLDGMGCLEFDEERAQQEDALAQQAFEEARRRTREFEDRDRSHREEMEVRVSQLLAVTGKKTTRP

[3] = target: T2, Apoptotic protease-activating factor 1 (Homo sapiens, UniProt O14727); format: functional
T2 sequence (O14727 whole entry): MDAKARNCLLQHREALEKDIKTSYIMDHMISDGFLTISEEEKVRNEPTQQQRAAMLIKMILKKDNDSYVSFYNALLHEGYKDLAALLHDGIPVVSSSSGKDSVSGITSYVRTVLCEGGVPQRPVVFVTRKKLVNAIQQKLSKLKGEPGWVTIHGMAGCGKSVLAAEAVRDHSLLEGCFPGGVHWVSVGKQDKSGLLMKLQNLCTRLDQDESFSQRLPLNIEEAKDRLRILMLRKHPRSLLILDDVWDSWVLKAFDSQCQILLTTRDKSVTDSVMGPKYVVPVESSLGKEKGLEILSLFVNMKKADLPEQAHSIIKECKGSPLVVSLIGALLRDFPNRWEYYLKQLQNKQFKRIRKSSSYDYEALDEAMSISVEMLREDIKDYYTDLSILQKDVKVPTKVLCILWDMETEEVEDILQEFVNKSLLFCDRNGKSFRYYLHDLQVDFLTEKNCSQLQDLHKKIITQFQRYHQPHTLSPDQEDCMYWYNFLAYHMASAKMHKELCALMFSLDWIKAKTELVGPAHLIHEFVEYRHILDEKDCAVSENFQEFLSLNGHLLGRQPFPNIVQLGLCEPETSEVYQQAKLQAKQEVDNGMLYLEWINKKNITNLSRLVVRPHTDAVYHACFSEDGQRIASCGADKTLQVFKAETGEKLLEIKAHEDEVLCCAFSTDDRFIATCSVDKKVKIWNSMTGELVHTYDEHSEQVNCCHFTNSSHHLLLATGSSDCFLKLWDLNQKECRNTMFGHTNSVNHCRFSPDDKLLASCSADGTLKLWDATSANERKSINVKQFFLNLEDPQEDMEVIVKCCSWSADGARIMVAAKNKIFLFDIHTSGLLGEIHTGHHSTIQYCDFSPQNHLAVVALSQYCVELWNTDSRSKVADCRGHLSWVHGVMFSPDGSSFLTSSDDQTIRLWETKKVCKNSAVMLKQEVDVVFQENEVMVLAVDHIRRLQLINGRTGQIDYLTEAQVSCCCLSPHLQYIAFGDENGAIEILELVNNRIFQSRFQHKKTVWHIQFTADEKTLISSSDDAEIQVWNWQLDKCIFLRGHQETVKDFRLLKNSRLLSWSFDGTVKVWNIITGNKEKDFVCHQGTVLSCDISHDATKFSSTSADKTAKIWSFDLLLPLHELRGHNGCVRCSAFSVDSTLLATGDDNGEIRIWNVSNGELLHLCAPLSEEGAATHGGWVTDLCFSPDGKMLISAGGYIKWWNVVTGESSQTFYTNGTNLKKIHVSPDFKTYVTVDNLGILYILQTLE

[4] = target: T1, Runt-related transcription factor 1/Core-binding factor subunit beta; assay: inhibitors of RUNX1 Runt–CBFb-SMMHC binding, primary screen, biochemical, FRET, Cerulean-Runt, Venus-CBFb-SMMHC, uHTS (AID 1434); format: protein assay;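 note: partner is the CBFb-SMMHC leukemia fusion protein rather than wild-type CBFb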
[5] = target: Glyceraldehyde-3-phosphate dehydrogenase (Homo sapiens, UniProt P04406)
Glyceraldehyde-3-phosphate dehydrogenase, sequence (P04406 whole entry): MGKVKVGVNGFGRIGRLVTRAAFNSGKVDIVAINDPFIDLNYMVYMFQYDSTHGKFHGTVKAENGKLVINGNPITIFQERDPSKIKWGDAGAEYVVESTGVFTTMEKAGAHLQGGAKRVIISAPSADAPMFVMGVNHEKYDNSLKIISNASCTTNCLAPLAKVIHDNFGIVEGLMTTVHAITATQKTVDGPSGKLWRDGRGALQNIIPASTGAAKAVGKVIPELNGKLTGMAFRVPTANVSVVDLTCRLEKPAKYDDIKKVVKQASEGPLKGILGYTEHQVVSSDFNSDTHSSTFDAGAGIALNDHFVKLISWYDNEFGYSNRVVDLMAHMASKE

[6] = target: T3, Alkaline phosphatase, tissue-nonspecific isozyme (Homo sapiens, UniProt P05186); assay: human TNAP enzyme inhibitors, SAR follow-up, biochemical, luminescent, dose response (AID 1056)
T3 sequence (P05186 whole entry): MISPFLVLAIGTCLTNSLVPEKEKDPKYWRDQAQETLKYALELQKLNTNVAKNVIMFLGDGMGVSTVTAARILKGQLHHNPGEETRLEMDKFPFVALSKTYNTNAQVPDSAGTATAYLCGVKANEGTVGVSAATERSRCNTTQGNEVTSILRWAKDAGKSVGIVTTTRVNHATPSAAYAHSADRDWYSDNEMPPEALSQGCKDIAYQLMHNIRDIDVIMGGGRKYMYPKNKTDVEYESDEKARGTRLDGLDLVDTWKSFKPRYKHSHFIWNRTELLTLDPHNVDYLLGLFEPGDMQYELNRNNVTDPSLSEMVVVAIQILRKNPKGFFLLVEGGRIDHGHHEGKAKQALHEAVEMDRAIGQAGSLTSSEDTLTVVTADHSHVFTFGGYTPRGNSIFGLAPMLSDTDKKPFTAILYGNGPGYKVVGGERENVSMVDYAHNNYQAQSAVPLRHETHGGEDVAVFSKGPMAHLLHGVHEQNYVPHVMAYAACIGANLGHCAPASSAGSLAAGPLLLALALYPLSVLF

CAAX prenyl protease 2 = CAAX prenyl protease 2 (Saccharomyces cerevisiae S288c, UniProt Q03530); format: biochemical
CAAX prenyl protease 2, sequence (Q03530 whole entry): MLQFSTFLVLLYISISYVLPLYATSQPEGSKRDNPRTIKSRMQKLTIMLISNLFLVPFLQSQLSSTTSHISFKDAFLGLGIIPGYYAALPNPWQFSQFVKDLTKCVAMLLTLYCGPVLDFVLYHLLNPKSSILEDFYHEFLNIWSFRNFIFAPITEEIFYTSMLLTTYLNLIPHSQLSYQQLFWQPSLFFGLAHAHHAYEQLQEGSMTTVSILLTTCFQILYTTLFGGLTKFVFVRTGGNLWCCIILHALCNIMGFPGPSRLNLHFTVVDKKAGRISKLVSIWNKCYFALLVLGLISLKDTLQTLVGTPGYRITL

Trypsin = Trypsin (Sus scrofa, UniProt P00761); assay: porcine trypsin inhibitors, dose response, selectivity assay for Rce1 protease inhibitor project, biochemical, quenched peptide fluorescence, cherry-pick (AID 488789)
Trypsin, sequence (P00761 whole entry): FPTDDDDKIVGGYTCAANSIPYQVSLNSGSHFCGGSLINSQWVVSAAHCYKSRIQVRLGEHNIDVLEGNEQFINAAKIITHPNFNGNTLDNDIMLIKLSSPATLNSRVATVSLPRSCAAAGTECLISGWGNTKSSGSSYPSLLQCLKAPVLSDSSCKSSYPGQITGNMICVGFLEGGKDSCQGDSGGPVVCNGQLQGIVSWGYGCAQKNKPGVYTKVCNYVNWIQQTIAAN

[7] = target: DNA dC->dU-editing enzyme APOBEC-3A (Homo sapiens, UniProt P31941); assay: APOBEC3A DNA deaminase inhibitors, dose response, biochemical (AID 504722); format: functional
DNA dC->dU-editing enzyme APOBEC-3A, sequence (P31941 whole entry): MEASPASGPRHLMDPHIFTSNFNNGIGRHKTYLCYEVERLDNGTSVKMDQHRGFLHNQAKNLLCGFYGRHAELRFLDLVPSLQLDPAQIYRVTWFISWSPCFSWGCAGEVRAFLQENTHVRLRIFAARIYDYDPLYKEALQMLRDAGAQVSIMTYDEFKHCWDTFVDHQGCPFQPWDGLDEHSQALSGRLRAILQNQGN

[8] = target: DNA dC->dU-editing enzyme APOBEC-3G (Homo sapiens, UniProt Q9HC16); assay: Dose Response confirmation of small molecule APOBEC3G DNA Deaminase Inhibitors via a fluorescence-based single-stranded DNA deaminase assay. [Related pubchem assays (depositor defined):AID493012, AID493028]; format: functional
DNA dC->dU-editing enzyme APOBEC-3G, sequence (Q9HC16 whole entry): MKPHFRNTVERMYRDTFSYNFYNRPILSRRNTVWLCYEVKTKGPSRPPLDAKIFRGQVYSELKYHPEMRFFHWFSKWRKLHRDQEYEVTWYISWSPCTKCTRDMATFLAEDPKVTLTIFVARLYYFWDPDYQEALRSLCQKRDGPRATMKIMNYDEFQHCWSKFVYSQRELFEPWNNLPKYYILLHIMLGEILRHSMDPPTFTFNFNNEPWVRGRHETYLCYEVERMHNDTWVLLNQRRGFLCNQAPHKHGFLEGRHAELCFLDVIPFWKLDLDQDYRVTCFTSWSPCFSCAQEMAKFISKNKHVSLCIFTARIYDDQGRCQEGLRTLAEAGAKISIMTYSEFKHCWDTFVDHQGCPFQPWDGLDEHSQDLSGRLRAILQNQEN

[9] = target: Glucose-6-phosphate 1-dehydrogenase (Homo sapiens, UniProt P11413); assay: human G6PD enzyme inhibitors, dose response, selectivity assay for P. falciparum G6PD inhibitor project, biochemical, fluorescence (AID 504792); format: functional
Glucose-6-phosphate 1-dehydrogenase, sequence (P11413 whole entry): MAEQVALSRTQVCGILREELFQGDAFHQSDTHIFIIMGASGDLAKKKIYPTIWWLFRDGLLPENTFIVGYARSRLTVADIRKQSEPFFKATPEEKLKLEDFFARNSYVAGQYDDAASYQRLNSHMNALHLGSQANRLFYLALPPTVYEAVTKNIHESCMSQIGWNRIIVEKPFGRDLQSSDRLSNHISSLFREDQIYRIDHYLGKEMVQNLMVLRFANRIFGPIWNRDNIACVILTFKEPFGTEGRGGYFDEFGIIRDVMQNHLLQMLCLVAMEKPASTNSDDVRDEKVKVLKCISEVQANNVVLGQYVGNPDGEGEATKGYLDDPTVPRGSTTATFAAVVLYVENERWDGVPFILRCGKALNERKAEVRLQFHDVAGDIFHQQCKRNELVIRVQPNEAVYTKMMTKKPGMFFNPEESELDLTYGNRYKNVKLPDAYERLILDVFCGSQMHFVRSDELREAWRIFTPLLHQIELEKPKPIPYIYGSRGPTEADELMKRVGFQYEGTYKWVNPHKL

[10] = cytotoxicity in HEK-293T cells, dose response, cytotoxicity control for BCR NF-kB inhibitor project, luminescence, B-cell screen hits (AID 489021); format: functional, cell-based;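 note: HEK-293T cells carrying an NF-kB luciferase reporter; cells exposed to compound for about 14 hours before viability readout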
[11] = target: T4, RNA-binding protein pos-1 (Caenorhabditis elegans, UniProt G5EF15); assay: inhibitors of POS-1/mex-3 RNA binding, dose response, biochemical, fluorescence polarization (AID 1964);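 note: purified POS-1 fused to maltose binding protein made in E. coli; potency of compounds blocking POS-1 binding to fluorescent RNA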
T4 sequence (G5EF15 whole entry): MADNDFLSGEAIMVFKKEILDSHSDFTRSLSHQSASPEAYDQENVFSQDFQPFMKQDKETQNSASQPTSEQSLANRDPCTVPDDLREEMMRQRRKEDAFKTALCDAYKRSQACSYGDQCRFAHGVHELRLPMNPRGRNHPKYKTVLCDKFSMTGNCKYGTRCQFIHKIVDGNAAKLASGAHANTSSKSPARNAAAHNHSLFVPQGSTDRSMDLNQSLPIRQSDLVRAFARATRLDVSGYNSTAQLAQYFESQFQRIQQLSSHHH

[12] = target: T5, Zinc finger protein mex-5 (Caenorhabditis elegans, UniProt Q9XUB2); assay: MEX-5/TCR-2 RNA interaction inhibitors, dose response, biochemical, C. elegans, fluorescence polarization (AID 1960)
T5 sequence (Q9XUB2 whole entry): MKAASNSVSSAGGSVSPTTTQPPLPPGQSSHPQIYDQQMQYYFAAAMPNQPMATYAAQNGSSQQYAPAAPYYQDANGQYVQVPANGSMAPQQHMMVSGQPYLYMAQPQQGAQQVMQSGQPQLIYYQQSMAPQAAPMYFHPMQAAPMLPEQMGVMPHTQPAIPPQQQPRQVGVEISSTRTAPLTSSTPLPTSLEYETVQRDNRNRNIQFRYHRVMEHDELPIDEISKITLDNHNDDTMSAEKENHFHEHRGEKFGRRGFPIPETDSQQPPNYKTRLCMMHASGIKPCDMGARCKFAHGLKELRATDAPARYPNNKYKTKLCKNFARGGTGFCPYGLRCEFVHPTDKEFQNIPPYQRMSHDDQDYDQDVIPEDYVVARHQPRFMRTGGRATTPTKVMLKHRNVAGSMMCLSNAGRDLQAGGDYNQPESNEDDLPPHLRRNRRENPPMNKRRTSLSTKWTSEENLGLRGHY

[13] = target: Eukaryotic translation initiation factor 4E (Mus musculus, UniProt P63073); assay: eIF4E–eIF4G protein interaction inhibitors, dose response, biochemical, TR-FRET (AID 855); format: functional;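 note: potency for disrupting eIF4E binding to eIF4GI seen as loss of FRET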
Eukaryotic translation initiation factor 4E, sequence (P63073 whole entry): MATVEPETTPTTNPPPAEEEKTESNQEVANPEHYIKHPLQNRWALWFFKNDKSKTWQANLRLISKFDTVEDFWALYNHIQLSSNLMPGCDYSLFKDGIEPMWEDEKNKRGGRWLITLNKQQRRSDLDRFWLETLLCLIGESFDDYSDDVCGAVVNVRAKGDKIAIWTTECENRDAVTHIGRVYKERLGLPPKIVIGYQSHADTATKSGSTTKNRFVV

Coagulation factor XII = target: T6, Coagulation factor XII (Homo sapiens, UniProt P00748); assay: Factor XIIa Dose Response Confirmation from Single Well HTS. [Related pubchem assays (depositor defined):AID701]; format: functional
T6 sequence (P00748 whole entry): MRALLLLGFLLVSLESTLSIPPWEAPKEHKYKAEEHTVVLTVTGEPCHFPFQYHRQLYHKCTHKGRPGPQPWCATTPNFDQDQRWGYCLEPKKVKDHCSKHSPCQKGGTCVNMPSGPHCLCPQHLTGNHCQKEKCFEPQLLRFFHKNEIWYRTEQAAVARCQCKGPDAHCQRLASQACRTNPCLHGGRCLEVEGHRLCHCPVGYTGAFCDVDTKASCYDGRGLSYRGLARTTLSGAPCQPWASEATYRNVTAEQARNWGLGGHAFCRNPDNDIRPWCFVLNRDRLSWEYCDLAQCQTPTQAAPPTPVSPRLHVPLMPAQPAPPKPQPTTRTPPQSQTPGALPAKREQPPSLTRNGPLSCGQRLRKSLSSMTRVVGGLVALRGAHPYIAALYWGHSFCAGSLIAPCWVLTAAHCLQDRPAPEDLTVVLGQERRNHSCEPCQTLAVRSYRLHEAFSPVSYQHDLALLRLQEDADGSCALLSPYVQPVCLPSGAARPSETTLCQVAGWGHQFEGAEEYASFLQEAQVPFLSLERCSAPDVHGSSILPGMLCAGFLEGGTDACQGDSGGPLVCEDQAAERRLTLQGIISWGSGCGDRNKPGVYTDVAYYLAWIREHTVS

[14] = target: Induced myeloid leukemia cell differentiation protein Mcl-1 (Homo sapiens, UniProt Q07820); format: functional
Induced myeloid leukemia cell differentiation protein Mcl-1, sequence (Q07820 whole entry): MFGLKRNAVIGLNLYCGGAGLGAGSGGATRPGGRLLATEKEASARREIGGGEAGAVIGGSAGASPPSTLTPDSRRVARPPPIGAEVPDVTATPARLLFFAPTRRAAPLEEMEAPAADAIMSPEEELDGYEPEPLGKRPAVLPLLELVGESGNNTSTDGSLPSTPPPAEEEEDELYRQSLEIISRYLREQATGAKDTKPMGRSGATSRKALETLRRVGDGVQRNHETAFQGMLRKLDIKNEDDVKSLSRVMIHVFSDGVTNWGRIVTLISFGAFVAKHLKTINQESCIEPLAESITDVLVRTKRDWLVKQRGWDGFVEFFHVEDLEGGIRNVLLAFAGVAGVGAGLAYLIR

[15] = target: T7, Rac GTPase-activating protein 1 (Homo sapiens, UniProt Q9H0H5); assay: MgcRacGAP GTPase-activating activity inhibitors, confirmation, biochemical, ADP Hunter fluorescence, primary and confirmatory (AID 624330); format: functional
T7 sequence (Q9H0H5 whole entry): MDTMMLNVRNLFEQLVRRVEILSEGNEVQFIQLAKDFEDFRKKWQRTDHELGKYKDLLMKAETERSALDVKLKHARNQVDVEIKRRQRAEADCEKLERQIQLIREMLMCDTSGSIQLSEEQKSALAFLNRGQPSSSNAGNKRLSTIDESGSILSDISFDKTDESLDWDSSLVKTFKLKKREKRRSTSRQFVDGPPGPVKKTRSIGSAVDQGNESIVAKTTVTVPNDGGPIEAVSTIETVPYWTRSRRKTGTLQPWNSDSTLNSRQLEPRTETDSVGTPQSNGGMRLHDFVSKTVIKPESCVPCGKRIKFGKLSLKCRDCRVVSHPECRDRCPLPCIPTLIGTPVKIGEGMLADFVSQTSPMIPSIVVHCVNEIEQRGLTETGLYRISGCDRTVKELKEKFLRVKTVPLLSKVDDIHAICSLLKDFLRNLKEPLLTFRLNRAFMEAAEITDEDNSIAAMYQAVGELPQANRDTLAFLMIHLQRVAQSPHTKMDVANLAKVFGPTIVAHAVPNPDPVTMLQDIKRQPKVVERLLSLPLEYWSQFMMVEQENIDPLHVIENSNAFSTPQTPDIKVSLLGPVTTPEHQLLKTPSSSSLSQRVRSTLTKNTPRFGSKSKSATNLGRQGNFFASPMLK

Compound: COCCCNC(=O)c1c(NC(=O)c2ccco2)n(Cc2ccccc2)c2nc3ccccc3nc12
- IC50 [2]: 16 µM (active)
- IC50 [3]: > 100 µM (inactive)
- IC50 [4]: 0.34 µM (active)

Compound: COC(=O)c1cnn2c3c(c(C)nc12)CCCC3
- AC50 (CAAX prenyl protease 2): 10.3 µM (active)
- AC50 (Trypsin): 8.29 µM (active)

Compound: COc1cc(/C=N/n2cc(-c3ccccc3)nc2S)cc(OC)c1O
- IC50 [7]: > 100 µM (inactive)
- IC50 [8]: 5.9 µM (active)
- IC50 [9]: > 80 µM (inactive)

Compound: Cc1ccc(-c2cn3c(S)nnc3s2)cc1
- IC50 [7]: > 100 µM (inactive)
- IC50 [8]: 2.61 µM (active)

Compound: COC(=O)c1c(NC(=O)c2cccc([N+](=O)[O-])c2)sc(C(N)=O)c1C
- IC50 [10]: > 80 µM (inactive)

Compound: Oc1ccc(-c2cnns2)c(O)c1
- IC50 [2]: 19.9 µM (active)
- EC50 [11]: 45.5 µM (active)
- EC50 [12]: 10.4 µM (active)
- IC50 [4]: 31.5 µM (active)

Compound: O=C1C=CC(=Nc2nc(O)c(-c3c(O)[nH]c4ccccc34)s2)C=C1
- IC50 [14]: 1.67 µM (active)
- IC50 [13]: 50 µM (inactive)
- IC50 [15]: 59.2 µM (active)

The next lines start with the values.

- IC50 [1]: > 100 µM (inactive)
Compound: COc1ccc(CCN2C(=O)c3ccncc3C2=O)cc1OC

- IC50 [5]: > 10 µM (inconclusive)
- IC50 [6]: > 10 µM (inactive)
Compound: COc1ccccc1C(=O)Nc1cnc2ccccc2c1

- IC50 [13]: 50 µM (inactive)
Compound: CSc1cccc(NC(=S)N(Cc2ccc(C)cc2)Cc2cccnc2)c1

- IC50 (Coagulation factor XII): > 50 µM (inactive)
Compound: Cc1ccc(-c2n[nH]c(=O)c3ccccc23)cc1S(=O)(=O)NCCO
